What was measured:
[1] = test system: PDE4D, in particular, PDE4D short isoform; test: Protein degradation assay, western blot, PDE4D in A549 cells; format: cell-based; details: 24 h treatment, same conditions
Protocol: (§1) Example B2. Protein Degradation Assay
(§2) A549 cells were grown in RPMI 1640 media supplemented with 10% fetal bovine serum, streptomycin, and penicillin. The cells were plated in 6-well plates at 300,000 cells/well in the growth media. After overnight incubation, the cells were treated with DMSO (control) or a compound at predetermined concentrations (e.g., 10 nM, 100 nM, 1 μM, 3 μM, or 10 μM) for 24 h at 37° C. under 5% CO2. Whole cell extracts were prepared using an immunoprecipitation (IP) lysis buffer. The cells were washed once in PBS, and the cell pellets were resuspended in the IP lysis buffer and incubated for 15 min on ice. Cells debris was removed by centrifugation and the cleared whole cell lysates were transferred to new tubes for further analysis.
(§3) For a western blot analysis, the whole cell protein extracts were separated on 4-12% SDS-polyacrylamide gels, transferred to nitrocellulose, and probed with primary antibodies. Membranes were subsequently washed and probed with IRDYE® secondary antibodies. The signals were detected using an ODYSSEY® Imaging System. The antibodies used in the assay included anti-PDE4B antibody; anti-PDE4D antibodies (top, bottom, and short isoform); β-actin mouse monoclonal antibody; IRDYE® 680RD goat anti-rabbit antibody; and IRDYE® 800CW goat anti-mouse antibody. The compounds provided herein are PDE4 protein degraders.

[2] = test system: TNF-α; test: Cell-based TNF-α inhibition assay (LPS-induced PBMCs, Meso Scale); details: PBMC, PBMCs pretreated 1 h, LPS 100 ng/mL 18-24 h, percentage of stimulated DMSO control; for inhibition at 0.1 µM: compound concentration 0.1 μM; for inhibition at 1 µM: compound concentration 1 μM
Method in brief: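 Thawed primary PBMCs (200,000 cells/well, RPMI 1640 with 10% FBS) were pretreated with compound for 1 h, then stimulated with 100 ng/mL LPS for 18–24 h. Supernatant TNF-α was measured by Meso Scale, and activity was expressed as percent inhibition relative to the stimulated DMSO control.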

[3] = molecular target: T1, PDE4B (Homo sapiens, UniProt Q07343); test: Protein degradation assay, western blot, PDE4B in A549 cells; format: cell-based; details: 24 h treatment, 'as high as about' = upper value for the group, read-out: PDE4B degradation relative to DMSO
T1 construct: endogenous in cells; host or cells: A549
Protocol: as §1, §2, §3

T1 sequence (Q07343 whole entry): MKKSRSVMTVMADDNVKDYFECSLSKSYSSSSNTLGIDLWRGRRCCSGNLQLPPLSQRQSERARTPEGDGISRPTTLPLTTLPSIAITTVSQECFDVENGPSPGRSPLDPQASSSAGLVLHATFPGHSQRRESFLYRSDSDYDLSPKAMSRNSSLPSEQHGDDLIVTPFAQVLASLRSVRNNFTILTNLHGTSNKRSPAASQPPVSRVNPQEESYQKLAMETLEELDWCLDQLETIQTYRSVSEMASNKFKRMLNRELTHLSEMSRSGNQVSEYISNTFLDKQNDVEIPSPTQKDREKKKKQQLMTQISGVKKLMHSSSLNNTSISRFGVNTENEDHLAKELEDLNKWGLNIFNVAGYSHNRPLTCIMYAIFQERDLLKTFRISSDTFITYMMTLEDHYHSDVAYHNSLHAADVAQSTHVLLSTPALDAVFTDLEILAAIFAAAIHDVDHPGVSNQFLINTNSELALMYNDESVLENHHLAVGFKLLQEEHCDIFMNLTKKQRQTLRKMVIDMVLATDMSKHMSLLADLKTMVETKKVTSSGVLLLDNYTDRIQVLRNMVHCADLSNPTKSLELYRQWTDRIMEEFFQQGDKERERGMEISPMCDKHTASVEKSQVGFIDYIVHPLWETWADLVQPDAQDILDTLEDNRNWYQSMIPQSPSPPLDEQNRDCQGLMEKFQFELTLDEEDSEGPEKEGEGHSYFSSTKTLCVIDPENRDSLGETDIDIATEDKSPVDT

Row | SMILES | PDE4D degradation (in words) [1] | inhibition at 0.1 µM [2] [%] | Dmax [3] [%] | inhibition at 1 µM [2] [%]
1 | CCOc1cc([C@@H](CS(C)(=O)=O)N2C(=O)c3cccc(NC(C)=O)c3C2=O)ccc1OC [apremilast] | did not degradate the PDE4D |  |  | 
2 | CCOc1cc([C@@H](CS(C)(=O)=O)N2C(=O)c3cccc(NC(=O)CCCCCCCCN4CCC(c5cc(F)cc6c5CN(C5CCC(=O)NC5=O)C6=O)CC4)c3C2=O)ccc1OC (stereo partly drawn) [Compound A13, 9-(4-(2-(2,6-Dioxopiperidin-3-yl)-6-fluoro-1-oxoisoindolin-4-yl)piperidin-1-yl)-N-(2-((S)-1-(3-ethoxy-4-methoxyphenyl)-2-(methylsulfonyl)ethyl)-1,3-dioxoisoindolin-4-yl)nonanamide] |  | ≥ 60 | ≤ 70 | 
3 | CCOc1cc([C@@H](CS(C)(=O)=O)N2C(=O)c3cccc(NCCCCCCCCCNCc4ccc(OCc5scc6c5CN(C5CCC(=O)NC5=O)C6=O)cc4)c3C2=O)ccc1OC (stereo partly drawn) [Compound A44, 4-[(9-{[(4-{[5-(2,6-Dioxopiperidin-3-yl)-4-oxo-4H,5H,6H-thieno[3,4-c]pyrrol-1-yl]methoxy}phenyl)methyl]amino}nonyl)amino]-2-[(1S)-1-(3-ethoxy-4-methoxyphenyl)-2-methanesulfonylethyl]-2,3-dihydro-1H-isoindole-1,3-dione] |  | ≥ 60 | ≤ 70 | ≥ 60
4 | CCOc1cc([C@@H](CS(C)(=O)=O)N2C(=O)c3cccc(NC(=O)CCCCCCCCN4CCC(C#Cc5cc6c(cc5F)C(=O)N(C5CCC(=O)NC5=O)C6)CC4)c3C2=O)ccc1OC (stereo partly drawn) [Compound A20, 9-(4-{2-[2-(2,6-Dioxopiperidin-3-yl)-6-fluoro-1-oxo-2,3-dihydro-1H-isoindol-5-yl]ethynyl}piperidin-1-yl)-N-{2-[(1S)-1-(3-ethoxy-4-methoxyphenyl)-2-methanesulfonylethyl]-1,3-dioxo-2,3-dihydro-1H-isoindol-4-yl}nonanamide] |  | ≥ 60 | ≤ 70 | ≥ 60
5 | O=C1CCC(N2Cc3c(NCCCOCCOCCOCCOc4ccc(C(=O)Nc5c(Cl)cncc5Cl)cc4OCC4CC4)cccc3C2=O)C(=O)N1 (centres unmarked) [Compound B9, 3-(Cyclopropylmethoxy)-N-(3,5-dichloropyridin-4-yl)-4-(2-(2-(2-(3-((2-(2,6-dioxopiperidin-3-yl)-1-oxoisoindolin-4-yl)amino)propoxy)ethoxy)ethoxy)ethoxy)benzamide] |  | ≥ 60 | ≤ 70 | ≥ 60
6 | CCOc1cc([C@@H](CS(C)(=O)=O)N2C(=O)c3cccc(NC(=O)COCCOCCOCCOCCNc4cccc5c4C(=O)N(C4CCC(=O)NC4=O)C5=O)c3C2=O)ccc1OC (stereo partly drawn) [Compound A4, 14-((2-(2,6-Dioxopiperidin-3-yl)-1,3-dioxoisoindolin-4-yl)amino)-N-(2-((S)-1-(3-ethoxy-4-methoxyphenyl)-2-(methylsulfonyl)ethyl)-1,3-dioxoisoindolin-4-yl)-3,6,9,12-tetraoxatetradecan-1-amide] |  | ≥ 60 | ≤ 70 | 
7 | CCOc1cc([C@@H](CS(C)(=O)=O)N2C(=O)c3cccc(NC(=O)CCCCCCCCC4CCN(c5cccc6c5C(=O)N(C5CCC(=O)NC5=O)C6=O)CC4)c3C2=O)ccc1OC (stereo partly drawn) [Compound A15, 9-{1-[2-(2,6-Dioxopiperidin-3-yl)-1,3-dioxo-2,3-dihydro-1H-isoindol-4-yl]piperidin-4-yl}-N-{2-[(1S)-1-(3-ethoxy-4-methoxyphenyl)-2-methanesulfonylethyl]-1,3-dioxo-2,3-dihydro-1H-isoindol-4-yl}nonanamide] |  | 40 to 60 | ≤ 70 | ≥ 60
8 | CCOc1cc([C@@H](CS(C)(=O)=O)N2C(=O)c3cccc(NC(=O)CCCCCCCN4CCC(c5cc6c(cc5F)C(=O)N(C5CCC(=O)NC5=O)C6)CC4)c3C2=O)ccc1OC (stereo partly drawn) [Compound A22, 8-{4-[2-(2,6-Dioxopiperidin-3-yl)-6-fluoro-1-oxo-2,3-dihydro-1H-isoindol-5-yl]piperidin-1-yl}-N-{2-[(1S)-1-(3-ethoxy-4-methoxyphenyl)-2-methanesulfonylethyl]-1,3-dioxo-2,3-dihydro-1H-isoindol-4-yl}octanamide] |  | ≥ 60 | ≤ 70 | ≥ 60
9 | O=C1CCC(Nc2cccc(NC(=O)CN3CCN(CCCCOc4cc(C(=O)Nc5c(Cl)cncc5Cl)ccc4OC(F)F)CC3)c2)C(=O)N1 (centres unmarked) [Compound B25, N-(3,5-Dichloropyridin-4-yl)-4-(difluoromethoxy)-3-(4-(4-(2-((3-((2,6-dioxopiperidin-3-yl)amino)phenyl)amino)-2-oxoethyl)piperazin-1-yl)butoxy)benzamide] |  | ≥ 60 | ≤ 70 | ≥ 60
10 | O=C1CCC(N2C(=O)c3cccc(N4CCC(CCCCCCCOc5cc(C(=O)Nc6c(Cl)cncc6Cl)ccc5OC(F)F)CC4)c3C2=O)C(=O)N1 (centres unmarked) [Compound B14, N-(3,5-Dichloropyridin-4-yl)-4-(difluoromethoxy)-3-((7-(1-(2-(2,6-dioxo-piperidin-3-yl)-1,3-dioxoisoindolin-4-yl)piperidin-4-yl)heptyl)oxy)benzamide] |  | ≥ 60 | ≤ 70 | ≥ 60
11 | O=C1CCC(N2Cc3cc(C4CCN(CCOc5cc(C(=O)Nc6c(Cl)cncc6Cl)ccc5OC(F)F)CC4)c(F)cc3C2=O)C(=O)N1 (centres unmarked) [Compound B15, N-(3,5-Dichloropyridin-4-yl)-4-(difluoromethoxy)-3-(2-{4-[2-(2,6-dioxo-piperidin-3-yl)-6-fluoro-1-oxo-2,3-dihydro-1H-isoindol-5-yl]piperidin-1-yl}ethoxy)benzamide] |  | ≥ 60 | ≤ 70 | ≥ 60
12 | CCOc1cc([C@@H](CS(C)(=O)=O)N2C(=O)c3cccc(NC(=O)CCCCCCCCCCNCc4ccc(OCc5scc6c5CN(C5CCC(=O)NC5=O)C6=O)cc4)c3C2=O)ccc1OC (stereo partly drawn) [Compound A43, 11-{[(4-{[5-(2,6-Dioxopiperidin-3-yl)-4-oxo-4H,5H,6H-thieno[3,4-c]pyrrol-1-yl]methoxy}phenyl)methyl]amino}-N-{2-[(1S)-1-(3-ethoxy-4-methoxyphenyl)-2-methanesulfonylethyl]-1,3-dioxo-2,3-dihydro-1H-isoindol-4-yl}undecanamide] |  | ≥ 60 | ≤ 70 | ≥ 60
